Residues, ends and D or L forms follow the SMILES beside them. No end group written: not given here.

As usually defined, the Kd is a measure of binding affinity in units of concentration.

For one data set, the system named is red blood cells. Description: Hemolysis assay. The class given is cell-based, mice. Conditions: mouse erythrocytes, 0-30 × 10^−6 M, 1 h, 37 °C, absorbance 570 nm. On the procedure:
The hemolytic activities of CL8, CL8‐M6P3, and NanoCLY were determined by monitoring hemoglobin release from red blood cells. Fresh erythrocytes were obtained from the whole blood of mice by centrifugation (1000 × g for 30 min at 4 °C), and washed three times with cold 0.9% NaCl. The erythrocytes were dispensed into 96‐well plates, incubated with CL8, CL8‐M6P3 and NanoCLY at specified concentrations (0, 0.3, 1, 3, 10, and 30 × 10^−6 M) for 1 h at 37 °C, centrifuged at 1000 × g for 10 min, the supernatant samples were collected, and the absorbance at 570 nm was measured by microplate reader Cytation 5 (Biotek, USA). The negative control group was defined as the absorbance obtained in 1× PBS (A PBS), and 100% hemolysis in 0.1%Triton X‐100 (v/v) (A Triton). The hemolysis percentage was calculated as: (A peptide − A PBS)/(ATriton − A PBS) × 100%.

In a further data set the target is T1, rhCTGF‐His tag protein (Homo sapiens, UniProt P29279).
T1 construct: purchased Novoprotein C15W
T1 sequence (P29279 27-349): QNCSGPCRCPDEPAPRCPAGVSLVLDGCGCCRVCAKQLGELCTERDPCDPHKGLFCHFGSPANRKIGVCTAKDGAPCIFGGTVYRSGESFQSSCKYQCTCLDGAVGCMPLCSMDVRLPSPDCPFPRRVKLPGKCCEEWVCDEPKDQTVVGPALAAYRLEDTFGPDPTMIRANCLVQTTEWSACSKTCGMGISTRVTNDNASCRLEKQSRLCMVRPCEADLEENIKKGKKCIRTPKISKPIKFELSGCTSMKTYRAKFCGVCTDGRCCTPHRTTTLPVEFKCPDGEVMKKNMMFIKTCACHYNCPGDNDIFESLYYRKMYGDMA
Put plainly: MicroScale Thermophoresis (MST) binding to CTGF. Conditions: Monolith NT.115, protein labelled with Monolith RED-NHS, 2 × 10^−6 M protein, PBST buffer (PBS, 0.05% Tween-20). On the procedure:
(§1) The affinity between various peptides (CL8, CC14, LT12, CC14S, CE8, FH14S, FH14, and CL8‐M6P3) and purified rhCTGF‐His tag protein (C15W, Novoprotein), IGFBP protein, and TSP proteins, was evaluated using microscale thermophoresis (NanoTemper, Germany). Additionally, the interaction between CL8‐M6P3 and the CCN1, CCN3, and CCN4 proteins was measured using the Dianthus system (NanoTemper, Germany). Prior to measurements, the purified proteins were labeled with fluorescent dye Monolith RED‐NHS (MO‐L011, NanoTemper). For the MST assay, 2 × 10^−6 M proteins (10 µL) were added with variable concentrations of the above peptides in PBST buffer (10 µL, PBS containing 0.05% Tween‐20). After a short incubation, the mixture was loaded into the Monolith NT.115 capillary (MO‐K022, NanoTemper) and analyzed using the Monolith NT.115 (NanoTemper, Germany).
(MST reads how a fluorescent partner responds to local heating, with and without ligand.)

Data set [1] addresses T2, TSP proteins (C-terminal domain of CTGF) (Homo sapiens, UniProt P29279).
T2 sequence (P29279 198-243 limits assumed): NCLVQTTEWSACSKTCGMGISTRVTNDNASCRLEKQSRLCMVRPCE
Description: MST binding to TSP domain of CTGF. Conditions: Figure S6c. On the procedure:
as §1

The next data set deals with T3, CCN3 (Homo sapiens, UniProt P48745).
T3 sequence (P48745 32-357): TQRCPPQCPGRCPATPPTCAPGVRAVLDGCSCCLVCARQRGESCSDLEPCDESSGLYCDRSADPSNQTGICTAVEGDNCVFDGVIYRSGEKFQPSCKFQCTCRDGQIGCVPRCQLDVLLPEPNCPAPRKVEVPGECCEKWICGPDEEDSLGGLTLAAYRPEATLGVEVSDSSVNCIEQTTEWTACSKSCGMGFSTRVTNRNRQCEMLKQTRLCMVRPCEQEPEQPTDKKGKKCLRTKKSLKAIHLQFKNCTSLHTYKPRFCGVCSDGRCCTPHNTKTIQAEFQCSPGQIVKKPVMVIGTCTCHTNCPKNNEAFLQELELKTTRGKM
Description: Binding to CCN3 (Dianthus system). Conditions: Figure S7a. On the procedure:
as §1

The next data set addresses T4, CCN1 (Homo sapiens, UniProt O00622).
T4 sequence (O00622 25-381): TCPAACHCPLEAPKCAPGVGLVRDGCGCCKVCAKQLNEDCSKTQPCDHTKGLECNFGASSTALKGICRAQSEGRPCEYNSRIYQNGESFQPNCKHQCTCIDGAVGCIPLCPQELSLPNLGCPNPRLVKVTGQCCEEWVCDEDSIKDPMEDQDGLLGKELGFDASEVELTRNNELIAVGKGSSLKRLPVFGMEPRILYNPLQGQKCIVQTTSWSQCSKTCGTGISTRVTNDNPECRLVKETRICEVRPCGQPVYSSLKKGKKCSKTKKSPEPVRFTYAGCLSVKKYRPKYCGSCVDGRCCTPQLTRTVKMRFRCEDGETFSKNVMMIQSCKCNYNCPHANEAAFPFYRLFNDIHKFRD
Description: Binding to CCN1 (Dianthus system). Conditions: Figure S7a. On the procedure:
as §1

In a further data set the target is T5, CCN4 (Homo sapiens, UniProt O95388).
T5 sequence (O95388 23-367): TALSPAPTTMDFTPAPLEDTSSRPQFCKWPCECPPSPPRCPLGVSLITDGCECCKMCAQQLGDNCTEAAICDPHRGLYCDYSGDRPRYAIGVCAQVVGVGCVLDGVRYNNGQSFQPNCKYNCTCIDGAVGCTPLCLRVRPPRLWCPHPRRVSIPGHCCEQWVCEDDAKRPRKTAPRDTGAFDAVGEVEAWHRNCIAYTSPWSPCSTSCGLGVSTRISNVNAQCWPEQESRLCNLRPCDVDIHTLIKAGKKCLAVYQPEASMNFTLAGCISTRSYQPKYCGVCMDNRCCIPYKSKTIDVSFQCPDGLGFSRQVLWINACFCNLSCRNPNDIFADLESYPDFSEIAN
Put plainly: Binding to CCN4 (Dianthus system). Conditions: Figure S7a. On the procedure: as §1

Data set [2] concerns the target IGFBP protein (N-terminal domain of CTGF) (Homo sapiens, UniProt P29279). Description: MST binding to IGFBP domain of CTGF. Conditions: Figure S6b. On the procedure:
as §1

The next data set addresses T6, CTGF (Homo sapiens, UniProt P29279).
T6 construct: endogenous in cells; host or cells: BT549 and MDA-MB-231 (human TNBC cell lines)
T6 sequence (P29279 27-349): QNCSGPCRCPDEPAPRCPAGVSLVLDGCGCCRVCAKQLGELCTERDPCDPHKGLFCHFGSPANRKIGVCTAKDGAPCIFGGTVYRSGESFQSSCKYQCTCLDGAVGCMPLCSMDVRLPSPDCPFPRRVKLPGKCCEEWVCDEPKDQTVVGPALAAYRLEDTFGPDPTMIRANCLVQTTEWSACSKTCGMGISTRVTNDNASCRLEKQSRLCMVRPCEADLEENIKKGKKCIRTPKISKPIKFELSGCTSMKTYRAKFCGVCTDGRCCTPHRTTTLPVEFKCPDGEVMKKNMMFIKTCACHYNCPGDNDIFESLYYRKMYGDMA
Put plainly: ELISA of extracellular CTGF in culture media of TNBC cells. The class given is cell-based. Conditions: in vitro, BT549 and MDA-MB-231 culture media, 12 h. On the procedure: BT549 and MDA‐MB‐231 cells were treated with various concentrations of CL8‐M6P3 or NanoCLY for 12 h. Extracellular CTGF protein level in conditioned media was quantified by a human CTGF ELISA kit following the manufacturer's instructions (ab261851, Abcam and CSB‐E07875h, Cusabio). Extracellular CCN1, CCN3, and CCN4 protein levels were quantified using respective ELISA kits (HY‐P7842, HY‐P701327, HY‐P78051, MCE) following the manufacturer's instructions (CSB‐EL015956HU, CSB‐EL026119HU, CSB‐E13884h, Cusabio). Additionally, BSP and β‐CTx levels in serum were quantified by ELISA kit following the manufacturer's instructions (BPE10823, BPE10438, lengton).
On the technique in general: ELISA stands for enzyme-linked immunosorbent assay.

Data set [3] concerns the target T7, recombinant human CTGF‐His tag (connective tissue growth factor) (human, UniProt P29279 27-349, labeled with fluorescent dye Monolith RED‐NHS).
T7 construct: connective tissue growth factor (CTGF/CCN2), human, recombinant; also called CCN2; rhCTGF‐His tag protein; source: bought: Novoprotein (C15W), purified
T7 sequence (looked up): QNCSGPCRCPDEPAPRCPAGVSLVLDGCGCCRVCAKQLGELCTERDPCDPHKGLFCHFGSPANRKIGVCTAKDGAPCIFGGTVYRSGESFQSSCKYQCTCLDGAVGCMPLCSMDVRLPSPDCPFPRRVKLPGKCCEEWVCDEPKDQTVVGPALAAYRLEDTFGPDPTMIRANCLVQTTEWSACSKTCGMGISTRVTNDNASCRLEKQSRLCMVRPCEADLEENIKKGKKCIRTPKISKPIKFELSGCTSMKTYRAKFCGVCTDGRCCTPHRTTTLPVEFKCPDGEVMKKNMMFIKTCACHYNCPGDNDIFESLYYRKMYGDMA
Description: MST; proteins labeled with Monolith RED-NHS; 2 × 10^-6 M protein (10 µL) mixed with variable concentrations of peptide in PBST (10 µL, PBS with 0.05% Tween-20); Monolith NT.115. Conditions: both partners purified.

For data set [4], the target named is T8, recombinant human CTGF‐His tag (connective tissue growth factor) (human), P29279.
T8 chain: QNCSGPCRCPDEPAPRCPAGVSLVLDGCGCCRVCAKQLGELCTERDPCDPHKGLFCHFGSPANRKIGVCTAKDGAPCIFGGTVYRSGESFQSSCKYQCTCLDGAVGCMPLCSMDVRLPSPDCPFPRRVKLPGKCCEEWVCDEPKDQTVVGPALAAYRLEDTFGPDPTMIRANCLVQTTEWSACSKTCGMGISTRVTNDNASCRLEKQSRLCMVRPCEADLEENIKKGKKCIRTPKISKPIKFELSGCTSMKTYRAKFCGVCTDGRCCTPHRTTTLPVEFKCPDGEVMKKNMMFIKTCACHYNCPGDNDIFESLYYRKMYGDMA
Described as above.

`CC(C)C[C@H](NC(=O)[C@H](Cc1ccc(O)cc1)NC(=O)[C@H](Cc1c[nH]cn1)NC(=O)[C@H](C)NC(=O)[C@H](C)NC(=O)[C@H](CO)NC(=O)[C@@H]1CCCN1C(=O)[C@@H](N)CS)C(N)=O` [CL8, reference compound] (H-CPSAAHYL-NH2): the hemolysis safety result in the data set on red blood cells is given as “good hemolysis safety”. Further, the Kd on rhCTGF‐His tag protein was 1230 nM.
With “H-CPSAAHYL-PEG3-[Pra(M6P)βAla]3-NH2 [CL8‐M6P3, peptide-based CTGF-LYTAC: CL8 conjugated to glycopeptide scaffold M6P3 by a PEG3 linker]”, the “interaction with TSP domain of CTGF” value in [1] is “interacts”. Further, the “binding interaction with CCN3” value on CCN3 is on record as “no binding interactions”. The “binding interaction with CCN1” value on CCN1 was “no binding interactions”. Further, the hemolysis safety result with red blood cells is recorded as “good hemolysis safety”. On CCN4, the “binding interaction with CCN4” value is reported as “no binding interactions”. Besides, the “interaction with IGFBP domain of CTGF” value in [2] is on record as “interacts”. The “extracellular CTGF degraded” value on CTGF is “≈ 50%”.
Consider CPSAAHYL (not fully specified (C-terminus)) [CL8‐M6P3], for which the Kd in data set [3] was determined as 13400 nM.
For CPSAAHYL (modifications not checked) [CL8 peptide], the dissociation constant (Kd) in data set [4] came to 1230 nM.

The values above are taken from publication PMC12199414, “A Self‐Assembling LYTAC Mediates CTGF Degradation and Remodels Inflammatory Tumor Microenvironment for Triple‐Negative Breast Cancer Therapy” (Advanced Science, 2025).
